Measurements taken from patent publication US20160206688A1, “METHODS FOR TREATING BACTEREMIA AND OSTEOMYELITIS USING ORITAVANCIN” (THE MEDICINES COMPANY, priority 2013, published 2016).
In brackets after ≈: the same amount, converted by molar mass.

What was measured:
[1] = Oritavancin concentrations (PK samples) in compassionate use subject; assay type: in vivo, human
Method: (§1) In response to a compassionate use request, oritavancin was administered to a subject having bacteremia.
(§2) Treatment as of Feb. 8, 2013: oritavancin (1200 mg IV, Q2D×3 times, then QW×5 times).
PK samples have been taken.
Attending physician kept the infusion time at 4 hours.
The concentrations are consistent with expectations from modeling (modeled oritavancin concentration-time profile is attached), with oritavancin attaining peaks of about 120-130 ug/mL and troughs of around 5-10 ug/mL for the loading phase and of around 5 ug/mL for the weekly dosing phase.

E. faecalis = experiment: Broth microdilution MIC, European bacteraemia isolates 2010-2012; assay type: cell-based, Enterococcus faecalis
Method in brief: (§3)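 Bacteraemia isolates from European, Israeli, Russian, Turkish and Ukrainian hospitals (2010-2012) tested centrally by CLSI M07-A9 broth microdilution in cation-adjusted Mueller-Hinton broth with 0.002% polysorbate-80. QC strains E. faecalis ATCC 29212 and S. aureus ATCC 29213; interpretation per CLSI M100-S23 and EUCAST 2013.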

[2] = system: staphylococcal clinical isolates; experiment: as above; assay type: cell-based, staphylococci
Method: A total of 2,904 clinical strains responsible for documented bacteremia among unique hospitalized patients in 38 hospitals in 11 European Union countries. Israel, Russia, Turkey and Ukraine were included in this study (2010-2012). Isolates were submitted to a central monitoring laboratory (JMI Laboratories, North Liberty. Iowa. USA), following previously established protocols. Bacterial species identification was performed by using an automated system (Vitek®2; bioMèrieux, Hazelwood, Mo., USA) or conventional biochemical algorithms, as required.
Isolates were tested for susceptibility by broth microdilution methods following the Clinical and Laboratory Standards Institute (CLSI; M07-A9, 2012) document. Susceptibility testing was performed in cation-adjusted Mueller-Hinton broth (CA-MHB) using dry-form panels manufactured by Thermo Fisher Scientific, formerly TREK Diagnostics Systems/Sensititre (Cleveland. Ohio, USA). These panels provide results equivalent to the CLSI-approved broth microdilution method supplemented with 0.002% polysorbate-80.
Quality assurance was performed by concurrent testing of CLSI-recommended (M100-S23, 2013) strains: E. faecalis ATCC 29212 and S. aureus ATCC 29213. Interpretation of comparator MIC results was in accordance with published CLSI (M100-S23) and European Committee on Antimicrobial Susceptibility Testing (EUCAST, 2013) criteria.

[3] = Tolerability and laboratory findings in compassionate use subject; assay type: in vivo, human
Method: as §1
(§4) The demographics of the subject included the following: […]; […]; […]; weight—190 lb; height—70 inches. The subject's medical history included the following: CAD s/p CABG 8/08 (SVG to OM1, SVG to PDA); severe AS s/p bioprosthetic AVR 8/08; lumbar discectomy and fusion February 2011, hardware removed Jan. 11, 2013; PVD S/p bilateral CEA 2010; CKD s/p renal artery stenting December 2011, Baseline Cr approx 3.0 s; HTN; CHF; HLD; mild pulmonary fibrosis; BPH; GERD; arthritis.
as §2

[4] = system: vancomycin-resistant enterococcal bacteremia; experiment: Blood culture follow-up of compassionate use subject treated with oritavancin; assay type: in vivo, human
Method: as §1, §4
The subject was diagnosed with: 1) vancomycin-resistant enterococcal bacteremia with intolerance of other antibiotics; and 2) possible spinal osteomyelitis.
as §2
Last blood culture was Feb. 4, 2013 (negative). Attending physician will take blood sample for culture Feb. 11, 2013 and weekly thereafter.

S. aureus = experiment: Broth microdilution MIC, European bacteraemia isolates 2010-2012; assay type: cell-based; conditions: for Number inhibited at MIC: S. aureus, Methicillin-Susceptible (1,126)
Method in brief: as §3

[5] = E. faecalis (445), at ≦0.008 mg/L
[6] = Enterococcus faecalis, read-out: cumulative % inhibited at MIC
[7] = collection of staphylococcal clinical isolates, regardless of the methicillin susceptibility pattern

## CN[C@H](CC(C)C)C(=O)N[C@H]1C(=O)N[C@@H](CC(N)=O)C(=O)N[C@H]2C(=O)N[C@H]3C(=O)N[C@H](C(=O)N[C@H](C(=O)O)c4cc(O)cc(O)c4-c4cc3ccc4O)[C@H](O[C@H]3C[C@](C)(N)[C@@H](O)[C@H](C)O3)c3ccc(c(Cl)c3)Oc3cc2cc(c3O[C@@H]2O[C@H](CO)[C@@H](O)[C@H](O)[C@H]2O[C@H]2C[C@](C)(NCc3ccc(-c4ccc(Cl)cc4)cc3)[C@@H](O)[C@H](C)O2)Oc2ccc(cc2Cl)[C@H]1O [Oritavancin, N-(4-(4-chlorophenyl)benzyl)A82846B]
[1]; 1200 mg IV, Q2D x3 then QW x5
  peaks (oritavancin concentration): 120 to 130 µg/mL
[1]; Peak - First Dose, 1200 mg IV
  Oritavancin concentration: 114.793 µg/mL
[1]; Peak - Third Dose, 1200 mg IV
  Oritavancin concentration: 133.581 µg/mL
[1]; Trough - First Dose, 1200 mg IV
  Oritavancin concentration: 4.272 µg/mL
[1]; Trough - Second Dose, 1200 mg IV
  Oritavancin concentration: 7.614 µg/mL
[1]; loading phase
  troughs (oritavancin concentration): 5 to 10 µg/mL
[1]; trough, fifth dose, 1200 mg IV
  Oritavancin concentration: 4.584 µg/mL
[1]; trough, fourth dose, 1200 mg IV
  Oritavancin concentration: 4.256 µg/mL
[1]; trough, sixth dose, 1200 mg IV
  Oritavancin concentration: 4.489 µg/mL
[1]; trough, third dose, 1200 mg IV
  Oritavancin concentration: 3.775 µg/mL
[1]; weekly dosing phase
  accumulation: no evidence of substantial accumulation
  troughs (oritavancin concentration): around 5 ug/mL
E. faecalis; E. faecalis (445), at 0.015 mg/L
  Number inhibited at MIC: 204
E. faecalis; E. faecalis (445), at 0.03 mg/L
  Number inhibited at MIC: 89
E. faecalis; E. faecalis (445), at 0.06 mg/L
  Number inhibited at MIC: 30
E. faecalis; E. faecalis (445), at 0.12 mg/L
  Number inhibited at MIC: 13
E. faecalis; E. faecalis (445), at 0.25 mg/L
  Number inhibited at MIC: 4
E. faecalis; E. faecalis (445), at 0.5 mg/L
  Number inhibited at MIC: 1
E. faecalis; [5]
  Number inhibited at MIC: 104
  cumulative % inhibited at MIC: 23.4%
E. faecalis; Enterococcus faecalis
  MIC50: 0.015 µg/mL (≈ 0.00837 µM)
  MIC90: 0.06 µg/mL (≈ 0.0335 µM)
E. faecalis; Enterococcus faecalis, read-out: MIC values
  MIC: 0.12 to 0.5 µg/mL (≈ 0.0669 to 0.279 µM)
E. faecalis; [6]
  inhibition at 0.015 µg/mL: 69.2%
  inhibition at 0.03 µg/mL: 89.2%
  inhibition at 0.06 µg/mL: 96%
  inhibition at 0.12 µg/mL: 98.9%
  inhibition at 0.25 µg/mL: 99.8%
  inhibition at 0.5 µg/mL: 100%
E. faecalis; Table 1, E. faecalis (445)
  MIC 50%: 0.015 µg/mL (≈ 0.00837 µM)
  MIC 90%: 0.06 µg/mL (≈ 0.0335 µM)
E. faecalis; Table 2, E. faecalis (445), includes four VanA-phenotype strains
  MIC Range: ≦0.008-0.5 mg/L
E. faecalis; all E. faecalis, including resistant subsets
  concentration inhibiting all strains: ≤ 0.5 mg/L
[2]; all staphylococci, including resistant subsets
  concentration inhibiting all strains: ≤ 0.25 mg/L
[2]; [7]
  MIC50: 0.03 µg/mL (≈ 0.0167 µM)
  MICE: 0.06 mg/L
[2]; staphylococci
  effect of methicillin-resistance phenotype on in vitro activity: not affected
[3]; last post-dose, reported Feb. 11, 2013, pre-treatment levels 2.8 to 3
  creatinine: 3.1
[3]; reported Feb. 20, 2013
  tolerability: tolerating oritavancin well without the adverse events from their previous antibiotics
[3]; reported Feb. 20, 2013, went down from 3.1
  creatinine: 1.6
[4]; Feb. 11, 2013 sample, after two 1200 mg IV doses
  blood culture: negative
[4]; samples taken Feb. 19, 2013, culture duration is 5 days
  blood culture: so far negative
S. aureus; MRSA strains, MIC50/90
  activity relative to vancomycin or linezolid: 16- to 32 fold
  potency relative to daptomycin: eight-fold
S. aureus; S. aureus isolates with decreased susceptibility to vancomycin (MIC=2 mg/L)
  MIC50, MIC90 and modal MIC relative to strains with vancomycin MIC≦1 mg/L: two-fold higher
S. aureus; at 0.015 mg/L
  Number inhibited at MIC: 247
S. aureus; at 0.03 mg/L
  Number inhibited at MIC: 458
S. aureus; at 0.06 mg/L
  Number inhibited at MIC: 297
S. aureus; at 0.12 mg/L
  Number inhibited at MIC: 78
